Assay results taken from patent publication US20130190223A1, “NONIMMUNOSUPPRESSIVE CYCLOSPORINE ANALOGUE MOLECULES” (ISOTECHNIKA PHARMA INC., priority 2008, published 2013).

Assays:
[1] = biological target: T1, CyP-D (Rattus norvegicus, UniProt P29117); type: biochemical; conditions: mitochondria isolated from rat liver, 190 μM calcium, swelling as decline in A540
T1 construct: Mitochondria were isolated from fresh rat liver; from tissue; host or cells: rat liver mitochondria
Source text: A mitochondria swelling assay was used to measure the efficacy of NICAMs in blocking CyP-D and mitochondrial permeability transition. Under certain pathological conditions, mitochondria lose the ability to regulate calcium levels, and excessive calcium accumulation in the mitochondrial matrix results in the opening of large pores in the inner mitochondrial membrane. Nonselective conductance of ions and molecules up to 1.5 kilodaltons through the pore, a process called mitochondrial permeability transition, leads to swelling of mitochondria and other events which culminate in cell death. […] In general, mitochondria isolated from rat liver were exposed to calcium to induce MPTP opening in the absence or presence of test compounds, and calcium-induced swelling was measured as a reduction in light absorbance at 540 nm.
Mitochondria were isolated from fresh rat liver. Ice-cold or 4° C. conditions were used throughout all steps of the isolation. The liver was rinsed thoroughly and chopped in a small volume of isolation buffer (IB; 10 mM Hepes, 70 mM sucrose, 210 mM mannitol, 0.5 mM EDTA). Aliquots of the minced liver were homogenized in IB using a Teflon-glass Potter-Elvehjem tissue grinder and passed through a cell screen filter. The filtered homogenate was centrifuged at 600 g for 10 min, then the resulting supernatant centrifuged at 7000 g for 10 min. The supernatant was discarded, and the pellet resuspended in wash buffer (10 mM Hepes, 70 mM sucrose, 210 mM mannitol) and centrifuged a final time at 7000 g for 10 min. The supernatant was discarded, and the mitochondria-containing pellet suspended and stored on ice in 2 mL of respiration buffer (RB; 5 mM Hepes, 70 mM sucrose, 210 mM mannitol, 10 mM sodium succinate, 1 mM sodium phosphate dibasic).
Test compound solutions were prepared from 10 mg/ml stocks (dimethyl sulfoxide vehicle) first by diluting the test compound 1000× into respiration buffer #2 (RB2; 5 mM Hepes, 70 mM sucrose, 210 mM mannitol, 10 mM sodium succinate, 1 mM sodium phosphate dibasic, 1% fetal bovine serum, 2 μM rotenone), then by 3×-serial dilutions in RB2 to achieve test compound concentrations of 10000, 3333, 1111, 370, 123, 41, and 14 ng/mL. Polystyrene tubes and plates were used for all preparations.
Swelling assays were completed in a 96-well flat-bottom polystyrene plates. In each well a 10-μL aliquot of mitochondria suspension, equivalent to 100-200 μg total protein, was combined with 90 μL of test compound, incubated for 10 min, then the baseline absorbance measured on a plate reader (540 nm wavelength; A540). Swelling was induced by adding 5 μL of 4 mM calcium chloride to achieve a final calcium concentration of 190 μM. Mitochondria swelling was indicated by a decline in A540. […] Duplicate samples were assayed for each test compound concentration.
Means and ranges of duplicate samples are shown.

[2] = system: human lymphocytes; experiment: Immunosuppressive potency: inhibition of proliferation of anti-CD3 stimulated human lymphocytes (CFSE, flow cytometry); type: cell-based; conditions: relative potency: IC50 for inhibition of cell division normalized to CsA, 3 days incubation
Description: The immunosuppressive potency of test compounds was assessed by measuring their ability to inhibit the proliferation of human lymphocytes in cell culture. Lymphocytes were isolated from blood of normal human volunteers by Ficoll-gradient centrifugation and stained with 2 μg/ml carboxyfluoroscein diacetate succinimydyl ester (CFSE), a fluorescent cell division tracer molecule. Cells were stimulated through the CD3/T-cell receptor by seeding cells at 300,000/well into 96-well flat-bottom, high-binding plates coated with 1 μg/ml UCHT-1 anti-human CD3 antibody. Test compounds were prepared first as 10 mg/ml stock solutions in dimethylsulfoxide (DMSO). Test solutions were prepared by 500-fold dilution of the DMSO stock solutions, then 3-fold serial dilutions in cell culture medium (RPMI+5% FBS+penicillin-steptomycin) for a total of 7 concentrations per compound. Test solutions were added in equal volume to the culture wells containing cells to achieve final concentrations after dilution of 13.7 ng/ml-10,000 ng/ml. […] Following 3 days incubation cells were stained with CD95-APC (lymphocyte activation marker) and analyzed by flow cytometry with a Becton Dickinson FACSCalibur. Percentage cell division was assessed in forward/side-scatter-gated lymphocytes by measuring the proportion of cells that underwent one or more cell divisions as determined by serial halving of CFSE intensity. The nondivided parent population was determined from samples maintained in culture without anti-CD3 stimulation. IC50 values for inhibition of cell division were determined by nonlinear regression analysis. […]

T1 sequence (P29117 30-206): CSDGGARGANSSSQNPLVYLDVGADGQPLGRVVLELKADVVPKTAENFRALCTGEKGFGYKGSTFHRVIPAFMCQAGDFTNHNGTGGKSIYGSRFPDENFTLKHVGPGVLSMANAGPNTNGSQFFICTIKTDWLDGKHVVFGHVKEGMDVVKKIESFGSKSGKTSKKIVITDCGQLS

Compound | CYP-D Inhibition (% Potency Vs CsA) [1] [%] | Immunosuppression (% Relative to CsA) [2] [%]
CCCC=CCC(C)C(O)C1C(=O)NC(CC)C(=O)N(C)CC(=O)N(C)C(CC(C)C)C(=O)NC(C(C)C)C(=O)N(C)C(CC(C)C)C(=O)NC(C)C(=O)NC(C)C(=O)N(C)C(CC(C)C)C(=O)N(C)C(CC(C)C)C(=O)N(C)C(C(C)C)C(=O)N1C (stereo not drawn) [Compound 404-26] | 58.4 | –
CCCCCCCC=CCC(C)C(O)C1C(=O)NC(CC)C(=O)N(C)CC(=O)N(C)C(CC(C)C)C(=O)NC(C(C)C)C(=O)N(C)C(CC(C)C)C(=O)NC(C)C(=O)NC(C)C(=O)N(C)C(CC(C)C)C(=O)N(C)C(CC(C)C)C(=O)N(C)C(C(C)C)C(=O)N1C (stereo not drawn) [Compound 404-44] | 1.2 | 1
CCC1NC(=O)C(C(O)C(C)CCCCC(=O)N(CC)CC)N(C)C(=O)C(C(C)C)N(C)C(=O)C(CC(C)C)N(C)C(=O)C(CC(C)C)N(C)C(=O)C(C)NC(=O)C(C)NC(=O)C(CC(C)C)N(C)C(=O)C(C(C)C)NC(=O)C(CC(C)C)N(C)C(=O)CN(C)C1=O (stereo not drawn) [Compound 404-85] | 128.7 | 2
CCC1NC(=O)C(C(O)C(C)CCCC(C)O)N(C)C(=O)C(C(C)C)N(C)C(=O)C(CC(C)C)N(C)C(=O)C(CC(C)C)N(C)C(=O)C(C)NC(=O)C(C)NC(=O)C(CC(C)C)N(C)C(=O)C(C(C)C)NC(=O)C(CC(C)C)N(C)C(=O)CN(C)C1=O (stereo not drawn) [Compound 404-98] | 162.7 | 3
CCC1NC(=O)C(C(O)C(C)CC(O)CO)N(C)C(=O)C(C(C)C)N(C)C(=O)C(CC(C)C)N(C)C(=O)C(CC(C)C)N(C)C(=O)C(C)NC(=O)C(C)NC(=O)C(CC(C)C)N(C)C(=O)C(C(C)C)NC(=O)C(CC(C)C)N(C)C(=O)CN(C)C1=O (stereo not drawn) [Compound 404-126] | 24.6 | <1
CCC1NC(=O)C(C(O)C(C)CCCCC(N)=O)N(C)C(=O)C(C(C)C)N(C)C(=O)C(CC(C)C)N(C)C(=O)C(CC(C)C)N(C)C(=O)C(C)NC(=O)C(C)NC(=O)C(CC(C)C)N(C)C(=O)C(C(C)C)NC(=O)C(CC(C)C)N(C)C(=O)CN(C)C1=O (stereo not drawn) [Compound 404-130] | 114.7 | <1
CCC1NC(=O)C(C(O)C(C)CCCCC(=O)N(C)C)N(C)C(=O)C(C(C)C)N(C)C(=O)C(CC(C)C)N(C)C(=O)C(CC(C)C)N(C)C(=O)C(C)NC(=O)C(C)NC(=O)C(CC(C)C)N(C)C(=O)C(C(C)C)NC(=O)C(CC(C)C)N(C)C(=O)CN(C)C1=O (stereo not drawn) [Compound 404-132] | 122.0 | <1
CCC1NC(=O)C(C(O)C(C)CC=CCCCCC(=O)N(C)C)N(C)C(=O)C(C(C)C)N(C)C(=O)C(CC(C)C)N(C)C(=O)C(CC(C)C)N(C)C(=O)C(C)NC(=O)C(C)NC(=O)C(CC(C)C)N(C)C(=O)C(C(C)C)NC(=O)C(CC(C)C)N(C)C(=O)CN(C)C1=O (stereo not drawn) [Compound 404-154] | 119.4 | 2
CCC1NC(=O)C(C(O)C(C)CC=CCCCC(=O)N(C)C)N(C)C(=O)C(C(C)C)N(C)C(=O)C(CC(C)C)N(C)C(=O)C(CC(C)C)N(C)C(=O)C(C)NC(=O)C(C)NC(=O)C(CC(C)C)N(C)C(=O)C(C(C)C)NC(=O)C(CC(C)C)N(C)C(=O)CN(C)C1=O (stereo not drawn) [Compound 404-156] | 82.2 | 1
CCC1NC(=O)C(C(O)C(C)CC=CCCC(=O)N(C)C)N(C)C(=O)C(C(C)C)N(C)C(=O)C(CC(C)C)N(C)C(=O)C(CC(C)C)N(C)C(=O)C(C)NC(=O)C(C)NC(=O)C(CC(C)C)N(C)C(=O)C(C(C)C)NC(=O)C(CC(C)C)N(C)C(=O)CN(C)C1=O (stereo not drawn) [Compound 404-157] | 142.3 | <1
CCC1NC(=O)C(C(O)C(C)CC=CCCCCC(=O)N2CCOCC2)N(C)C(=O)C(C(C)C)N(C)C(=O)C(CC(C)C)N(C)C(=O)C(CC(C)C)N(C)C(=O)C(C)NC(=O)C(C)NC(=O)C(CC(C)C)N(C)C(=O)C(C(C)C)NC(=O)C(CC(C)C)N(C)C(=O)CN(C)C1=O (stereo not drawn) [Compound 404-162] | 91.1 | <1
CCC1NC(=O)C(C(O)C(C)CC=CCCCCC(N)=O)N(C)C(=O)C(C(C)C)N(C)C(=O)C(CC(C)C)N(C)C(=O)C(CC(C)C)N(C)C(=O)C(C)NC(=O)C(C)NC(=O)C(CC(C)C)N(C)C(=O)C(C(C)C)NC(=O)C(CC(C)C)N(C)C(=O)CN(C)C1=O (stereo not drawn) [Compound 404-164] | 98.9 | –
CCCNC(=O)CCC=CCC(C)C(O)C1C(=O)NC(CC)C(=O)N(C)CC(=O)N(C)C(CC(C)C)C(=O)NC(C(C)C)C(=O)N(C)C(CC(C)C)C(=O)NC(C)C(=O)NC(C)C(=O)N(C)C(CC(C)C)C(=O)N(C)C(CC(C)C)C(=O)N(C)C(C(C)C)C(=O)N1C (stereo not drawn) [Compound 404-178] | 71.3 | <1
CCC1NC(=O)C(C(O)C(C)CC=CCCC#N)N(C)C(=O)C(C(C)C)N(C)C(=O)C(CC(C)C)N(C)C(=O)C(CC(C)C)N(C)C(=O)C(C)NC(=O)C(C)NC(=O)C(CC(C)C)N(C)C(=O)C(C(C)C)NC(=O)C(CC(C)C)N(C)C(=O)CN(C)C1=O (stereo not drawn) [Compound 404-194] | 123.2 | 2
CCC(O)CCCC(C)C(O)C1C(=O)NC(CC)C(=O)N(C)CC(=O)N(C)C(CC(C)C)C(=O)NC(C(C)C)C(=O)N(C)C(CC(C)C)C(=O)NC(C)C(=O)NC(C)C(=O)N(C)C(CC(C)C)C(=O)N(C)C(CC(C)C)C(=O)N(C)C(C(C)C)C(=O)N1C (stereo not drawn) [Compound 404-195] | 143.1 | 2
CCC1NC(=O)C(C(O)C(C)CCCO)N(C)C(=O)C(C(C)C)N(C)C(=O)C(CC(C)C)N(C)C(=O)C(CC(C)C)N(C)C(=O)C(C)NC(=O)C(C)NC(=O)C(CC(C)C)N(C)C(=O)C(C(C)C)NC(=O)C(CC(C)C)N(C)C(=O)CN(C)C1=O (stereo not drawn) [Compound 420-28] | 78.0 | <1
C=CCC(O)CCCC(C)C(O)C1C(=O)NC(CC)C(=O)N(C)CC(=O)N(C)C(CC(C)C)C(=O)NC(C(C)C)C(=O)N(C)C(CC(C)C)C(=O)NC(C)C(=O)NC(C)C(=O)N(C)C(CC(C)C)C(=O)N(C)C(CC(C)C)C(=O)N(C)C(C(C)C)C(=O)N1C (stereo not drawn) [Compound 420-49-1] | 143.6 | 3
CCC1NC(=O)C(C(O)C(C)CCCCCCCCCNC(=O)OC(C)(C)C)N(C)C(=O)C(C(C)C)N(C)C(=O)C(CC(C)C)N(C)C(=O)C(CC(C)C)N(C)C(=O)C(C)NC(=O)C(C)NC(=O)C(CC(C)C)N(C)C(=O)C(C(C)C)NC(=O)C(CC(C)C)N(C)C(=O)CN(C)C1=O (stereo not drawn) [Compound 420-125] | 42.4 | –
